Measurements published in publication PMC13005684 (Advanced Healthcare Materials, 2025).
Counter-ions that a name gives are not always drawn.

Columns and labels:
MDA-MB-231 cells [1] = assay type: cell-based, human
MDA-MB-231 cells [2] = test: cells; assay type: cell-based; conditions: Homo sapiens, MDA-MB-231, 72 h, read-out: 3-day IC50

Compound | cell death pathway triggered (MDA-MB-231 cells [1]) | IC50 (MDA-MB-231 cells [2]) [µM]
COc1cccc2c1C(=O)c1c(O)c3c(c(O)c1C2=O)C[C@@](O)(C(=O)CO)C[C@@H]3O[C@H]1C[C@H](N)[C@H](O)[C@H](C)O1 [doxorubicin, doxorubicin hydrochloride] | necrotic cell death pathway | ~0.51
COC1=C2C[C@@H](C)C[C@H](OC)[C@H](O)[C@@H](C)/C=C(\C)[C@H](OC(N)=O)[C@@H](OC)/C=C\C=C(/C)C(=O)NC(=CC1=O)C2=O [geldanamycin, Geldanamycin] | apoptosis | 3.7
